Earlier results on one compound are cited in patent US8030335B2, “Use of liver X receptor agonists” (Laboratoires Fournier S.A., priority 2005, dated 2011).

For one data set, the system named is db/db mice. Conditions: cited from earlier work.
The subject of data set [1] is pancreatic islets or insulin-secreting MIN6 cells. The note with it: culture with compound, cited from earlier work.

Regarding `O=S(=O)(c1ccccc1)N(CC(F)(F)F)c1ccc(C(O)(C(F)(F)F)C(F)(F)F)cc1` [T0901317], the plasma glucose level result with db/db mice (db/db mice (not in normal mice)) is “lower plasma glucose level”. Besides, in the data set with db/db mice (limits hepatic glucose output), the “expression of PEPCK” value is recorded as “inhibits”. The islet insulin content entry in data set [1] is “increase”. The glucose-dependent insulin secretion entry in data set [1] (effect only after >72 h of islet culture) is listed as “increase”.
